Laboratory results from patent publication US11472844B2, “Peptidomimetics, method of synthesis and uses thereof” (priority 2017, dated 2022).
*: point of attachment. X1 = CC[N+]1=C(/C=C/C=C/C=C2N(CCCCCC(=O)NCCN3C(=O)CC(*)C3=O)c3ccc(S(=O)(=O)O)cc3C2(C)C)C(C)(C)c2cc(S(=O)(=O)[O-])ccc21

Assays:
[1] = system: Human hematopoietic stem cells (CD34+); test: Labelling of hematopoietic stem cells and derived neutrophils; type: cell-based
Protocol: Hematopoietic Stem cells (CD34+) purification, proliferation and differentiation. HSC were purified from cytapheresis products with a CD34 Microbead Kit Ultrapure, according to the manufacturer procedure (Miltenyi). Lin^−/CD34+ HSC purity yield was >98%. CD34+ HSC were cultured in StemSpan SFEM II supplemented with SCF (100 ng/ml), IL-3 (10 ng/ml), and IL-6 (100 ng/ml) at 37° C. with 5% CO2. Neutrophil differentiation was induced in StemSpan SFEM II containing G-CSF (10 ng/ml), SCF (100 ng/ml), and IL-3 (10 ng/ml) for 13 days at 37° C. with 5% CO2.

[2] = system: guinea pig circulating neutrophils; test: Labelling of fixed guinea pig neutrophils; type: cell-based
Protocol: Polymorphonuclear neutrophils purification. Human polymorphonuclear neutrophils were purified as described previously (Monceaux et al. 2016). Briefly, plasma was removed by centrifugation (450×g, 15 min); blood cells were resuspended in 0.9% NaCl solution supplemented with 0.72% Dextran. After red blood cells sedimentation, white blood cells were pelleted and further separated on a two layer Percoll (GE Healthcare) (51%−42%) by centrifugation (at 240×g, 20 min). PBMC (top layer) were isolated from polymorphonuclear neutrophils (bottom layer). Red blood cells were removed from the latter fraction using CD235a (glycophorin) microbeads (negative selection) (Miltenyi Biotec). PBMCs and polymorphonuclear neutrophils were resuspended in the autologous plasma. Guinea pig and mouse polymorphonuclear neutrophils were purified with the same procedure.

[3] = system: neutrophils recruited to guinea pig colonic mucosa infected with Shigella flexneri; test: Guinea pig model of shigellosis, staining of fixed colon sections
Protocol: Guinea pig. The experimental protocol was approved by the french Ethic Committee Paris (n° 20140069, 2014). Young guinea pigs (Hartley, <150 g, Charles River) were anaesthetized and infected intrarectally with 10^9 CFU exponentially grown Shigella flexneri 5a (M90T) pGFP as previously described (Shim et al. 2007) (Monceaux et al. 2016). Infection occurred during 8 hours before animals were sacrificed and infected colons collected and fixed in 4% Paraformaldehyde (PFA) for two hours. For immunohistochemical staining, infected guinea pig colon samples were washed in PBS and incubated at 4° C. in PBS containing 16% sucrose for 4 hours, followed by incubation in PBS with 30% sucrose overnight. Samples were frozen in OCT (VWR 361603E) on dry ice. Frozen blocks were stored at −80 until sectioning. 10 to 30 μm sections were obtained using a cryostat CM-3050S (Leica). Tissue slices were labeled in PBS+0.1% saponin (Sigma-Aldrich) with MUB40-Cy5 or MUB40-Dylight (1 μg/ml) to localize recruited neutrophils. Slides were washed three time in PBS+0.1% saponin, three times in PBS, and three times in deionized H2O and mounted with prolong gold^tm mounting media.

[4] = system: neutrophils recruited to mouse colon infected with Shigella sonnei; test: Mouse model of shigellosis, staining of fixed colon sections; conditions: 1 μg/ml
Protocol: Mouse. The experimental protocol was approved by the french Ethic Committee Paris (number 20150042). Female 6 week-old BALB/cJRi mice from Charles River were orally gavaged with streptomycin (100 μL of 200 mg/ml solution) 24 hours prior to Shigella sonnei infection. Mice were orally gavaged with 10^10 CFUs S. sonnei carrying pMW211 expressing DsRed and monitored for 24 hours. At the end of the experiment, animals were sacrificed and tissue sections from the colon were extracted. Colon sections were placed in 4% paraformaldehyde (PFA) solution for 2 hours. PFA fixed tissue sections were passaged for 16 hours in 16% sucrose followed by 4 hours in 30% sucrose solutions. Fixed colon slices were embedded in OCT (VWR 361603E) and flash frozen in dry ice chilled 2-methylbutane. Frozen blocks were stored at −80 until sectioning. […] Tissue slices were prepared for fluorescence microscopy by incubation in 0.1% saponin for 1 hour followed by incubation with fluorescent markers specific for actin (phalloidin-FITC, Life Technology) and MUB40-Cy5 at a final 1 μg/ml concentration. […]
Spinning disk microscope. Mouse colons infected with S. sonnei pDsRed were imaged on a Bruker Opterra fluorescence microscope using a Zeiss Plan-Apochromat 63×/1.40 oil immersion lense and Prairie View software version 5.3. […]

[5] = system: cystic fibrosis (CF) patients sputum; test: CF patient sputum immunofluorescent staining; set-up: species or system human; conditions: together with anti-Muc2 and anti-Muc5ac antibodies, 1 μg/mL
Protocol: FIG. 4. CF patient sputum immunofluorescent staining with MUB40-Cy5 (SEQ ID NO: 3), anti-Muc2 and anti-Muc5ac antibodies (with secondary antibodies conjugated with FITC and Rhodamin respectively).
Muc2 was stained with an anti-Mucin2 antibody (green). Muc5ac was stained with an anti-Mucin5ac antibody (red). Tissue was additionally stained with MUB40-Cy5 (1 μg/mL, magenta). DNA was stained with Dapi (blue).

[6] = system: recruited neutrophils and secreted lactoferrin; test: Labelling of human inflamed tissue biopsies; conditions: malignant fibrous histiocytoma and streptococcal skin abscess biopsies, 1 μg/mL
Description: Human inflammatory tissues. Human biopsies from patients diagnosed for malignant fibrous histiocytoma and for a streptococcal skin abscess were collected and processed at the Kremlin Bicêtre Hospital, Anatomy and Pathological Histology Department. Tissue samples were fixed in formaldehyde and further embedded in paraffin. 10 μm sections were obtained using a microtome (Leica Biosystem). Tissues were labeled with a mouse anti-lactoferrin primary monoclonal antibody (Hycult biotech, clone 265-1K1, 1:50 dilution), MUB40-Cy5 (SEQ ID NO: 3) (1 μg/mL), and Dapi (1:1000 dilution) as described below.

Substance: Ac-C(X1)TAEGIKKFEGDGYELFKDNFPAGEKFDNDDTNDQFYTVIF-NH2 [Cy5-MUB40#1]
- labelling after differentiation in polymorphonuclear neutrophils ([1]; G-CSF, IL-3, IL-6, 2 weeks): positive staining
- labelling of hematopoietic stem cells ([1]; during proliferation): not labelled
- labelling of neutrophils [2]: efficiently labeled
- detection of neutrophil lactoferrin secretion ([3]; fixed guinea pig colonic mucosa infected by Shigella flexneri, 1 μg/mL): successfully revealed
- labelling of recruited neutrophils ([3]; guinea pig colon, Shigella flexneri, 1 μg/ml): specifically labeled
- labelling of recruited neutrophils [4]: specifically labeled
- labelling of CF patients sputum [5]: labeled
- labelling of recruited neutrophils and secreted lactoferrin [6]: labeled
